What all share (assay type): cell-based
Test [1] has as its system human osteosarcoma cells U2OS. Description: MTS cell growth inhibition, U2OS. As to conditions: for inhibition at 10 µM / IC50: Homo sapiens, U2OS, 48 h, MTS; for inhibition at 10 µM: compound concentration 10 μM, read-out: Inhibition rate against U2OS at 10 μM (%); for IC50: growth inhibition; for growth inhibitory activity on U2OS (in words): summary of Tables 3 and 4. On the procedure: (§1) 1) Medium: DMEM (Dulbecco's modified eagle medium) or RPMI1640 (containing 10% fetal bovine serum, 100 μg/mL ampicillin, 100 μg/mL streptomycin).
(§2) 2) Reagent: MTS reaction solution (containing 2 mg/mL of MTS (3-(4,5-dimethylthiazol-2-yl)-5-(3-carboxymethoxyphenyl)-2-(4-sulfophenyl)-2H-tetrazolium, inner salt); 100 μg/mL PES ([…])).
(§3) Human promyelocytic leukemia cells HL-60 (2×10^4 cells/well) cultured in vitro were incubated into a 96-well culture plate, the volume of cell-culture medium was 90 μL, and then 10 μL of the compound at each gradient concentration was added (the highest concentration was 10 μM, which was diluted stepwise by ⅓, and 8 concentration points were set in total; the system contained 0.1% DMSO (dimethyl sulfoxide)). The cell plate with uniformly mixed compound was cultured in a cell culture incubator (37° C.; 5% CO2) for 48 h, then 20 μμL of MTS reaction solution was added, uniformly mixed and incubated in the cell culture incubator (37° C.; 5% CO2) for 1-4 hr; OD values at 490 nm were measured by a microplate reader (VARIOSKAN FLASH, Thermo). Three parallels were set in each group of experiments, with 0.1% (a final concentration) DMSO as a negative control, and a medium without cells and compounds as a blank control. The cell growth inhibition rate was calculated by the following formula:
(§4) Cell growth inhibition rate%=1−(ODexperimental group−ODblank group)/(ODnegative group−ODblank group)×100%
(§5) 4) IC50 calculation: The semi-inhibitory concentration of the compound acting on cell was calculated using GradPad Prism 5 software according to the measured cell growth inhibition rate.
(§6) Human lung cancer cells A549, human gastric cancer cells BGC-823, human liver cancer cells HepG-2 and human breast cancer cells MCF-7, human osteosarcoma cells U2OS, human prostate cancer cells LNCAP cultured in vitro were added in a 96-well culture plate at 1,000-10,000 cells/well, incubated until adherence, and then the compound was added. As to other procedures, please refer to the method (1) above.

Test [2] relates to human gastric cancer cells BGC-823. Description: MTS cell growth inhibition, BGC-823. As to conditions: compound concentration 10 μM, 48 h, read-out: Inhibition rate against BGC-823 at 10 μM (%). On the procedure:
as §1, §2, §3, §4, §5, §6

The subject of test [3] is Human lung cancer cells A549. Put plainly: MTS cell growth inhibition, A549. As to conditions: compound concentration 10 μM, 48 h, MTS, read-out: Inhibition rate against A549 at 10 μM (%). Here is the method:
as §1, §2, §3, §4, §5, §6

Test [4] relates to human liver cancer cells HepG-2. Description: MTS cell growth inhibition, HepG-2. The settings on record: HepG2, compound concentration 10 μM, 48 h, read-out: Inhibition rate against HepG-2 at 10 μM (%). Here is the method: as §1, §2, §3, §4, §5, §6
Test [5] concerns human prostate cancer cells LNCAP. Put plainly: MTS cell growth inhibition, LNCAP. As to conditions: for inhibition at 10 µM / IC50: Homo sapiens, LNCaP, 48 h, MTS; for inhibition at 10 µM: compound concentration 10 μM, read-out: Inhibition rate against LNCAP at 10 μM (%); for IC50: growth inhibition; for growth inhibitory activity on LNCAP (in words): summary of Tables 3 and 4. Here is the method: as §1, §2, §3, §4, §5, §6

The subject of test [6] is human breast cancer cells MCF-7. Description: MTS cell growth inhibition, MCF-7. As to conditions: MCF7, compound concentration 10 μM, 48 h, read-out: Inhibition rate against MCF-7 at 10 μM (%). Here is the method:
as §1, §2, §3, §4, §5, §6

The test system of test [7] is Human promyelocytic leukemia cells HL-60. Description: MTS cell growth inhibition, HL-60. The settings on record: for inhibition at 10 µM / IC50: Homo sapiens, HL-60, 48 h, MTS; for inhibition at 10 µM: compound concentration 10 μM, read-out: Inhibition rate against HL-60 at 10 μM (%); for IC50: growth inhibition; for growth inhibitory activity on HL-60 (in words): summary of Tables 3 and 4. On the procedure:
as §1, §2, §3, §4, §5

What is called inhibition is the drop in the measured response relative to a control, in per cent. The IC50 is the concentration at which inhibition is half-maximal.

On to `O=C(NCc1ccccc1-c1ccncc1)c1cc2scnc2[nH]1` [Compound I-22], for which the inhibition at 10 µM in test [1] amounted to 50%; in test [2], 64.6%; in test [3] it was 54.8%; in test [4], 48.9%; in test [5], 64.3%; in test [6], 15.1%. For the same molecule, the inhibition at 10 µM in test [7] was found to be 65.2%. Also, the IC50 in test [1] came out at 3660 nM; in test [5], 2570 nM; in test [7], 672 nM.

In the case of `O=C(NCc1ccccc1-c1cccnc1)c1cc2scnc2[nH]1` [Compound I-23], the inhibition at 10 µM in test [1] is 56%; in test [2], 71.1%; in test [3], 53.4%; in test [4], 60.4%; in test [5], 64.4%; in test [6], 27%. Further, the inhibition at 10 µM in test [7] is 70.5%. The IC50 was 2920 nM in test [1], 1580 nM in test [5] and 475 nM in test [7].

For `O=C(NCc1ccccc1-c1ccsc1)c1cc2scnc2[nH]1` [Compound I-24], the inhibition at 10 µM was determined as 37.6% in test [1]; 51.2% in test [2]; 20.1% in test [3]; 38.2% in test [4]; 48.7% in test [5]; 31.5% in test [6]. For the same molecule, in test [7], the inhibition at 10 µM amounted to 64.3%. Also, the figures for the IC50 in test [1], in test [5] and in test [7] were 2750 nM, 849 nM and 2300 nM, respectively.

On to `O=C(NCc1ccccc1-c1ccco1)c1cc2scnc2[nH]1` [Compound I-26], for which the inhibition at 10 µM in test [1] was 44.5%; in test [2], 23.4%; in test [3] it was below 0%; in test [4], 29.7%; in test [5] it was 44.9%; in test [6], 3.1%. The inhibition at 10 µM in test [7] came to 64.8%. The results for the IC50 in test [1], in test [5] and in test [7] were 6170 nM, 163 nM and 3210 nM, respectively.

Turning to `O=C(NCc1ccccc1-c1ccoc1)c1cc2scnc2[nH]1` [Compound I-27], the inhibition at 10 µM in test [1] was 44.9%; in test [2], 55.1%; in test [3], 67.9%; in test [4], 43.2%; in test [6] it was 1.7%; in test [7], 68.8%. Also, the IC50 turned out to be 6 nM in test [1], 32 nM in test [5] and 0.012 nM in test [7]. Besides, the “growth inhibitory activity on U2OS (in words)” value in test [1] is on record as “relatively good growth inhibitory activity”. Also, in test [5], the “growth inhibitory activity on LNCAP (in words)” value is “relatively good growth inhibitory activity”. In addition, the “growth inhibitory activity on HL-60 (in words)” value in test [7] was “relatively good growth inhibitory activity”.

Turning to `O=C(NCc1ccccc1-c1cc2ccccc2o1)c1cc2scnc2[nH]1` [Compound I-28], the inhibition at 10 µM worked out at 48.7% in test [1]; 60.3% in test [2]; 50.3% in test [3]; 44.4% in test [4]; 71% in test [5]; 21% in test [6]. Moreover, in test [7], the inhibition at 10 µM is 74.8%. In addition, the IC50 turned out to be 928 nM in test [1], 130 nM in test [5] and 5 nM in test [7]. In addition, the “growth inhibitory activity on U2OS (in words)” value in test [1] is given as “relatively good growth inhibitory activity”. Also, the “growth inhibitory activity on LNCAP (in words)” value in test [5] is recorded as “relatively good growth inhibitory activity”. In addition, in test [7], the “growth inhibitory activity on HL-60 (in words)” value is reported as “relatively good growth inhibitory activity”.

Consider `CSc1ccc(OCc2cccc(NC(=O)c3cc4scnc4[nH]3)c2)cc1` [Compound I-31], for which the inhibition at 10 µM is 54.9% in test [1]; 20.4% in test [2]; below 0% in test [3]; 18.5% in test [4]; 59.3% in test [5]; 13.9% in test [6]. The inhibition at 10 µM in test [7] was determined as 71.8%. For the same molecule, the IC50 in test [1] amounted to 8920 nM; in test [5], 2600 nM; in test [7] it was 491 nM.
